Reference: patent US10561629B2, “Food containing glycine and use thereof” (AJINOMOTO CO., INC., priority 2004, dated 2020)
Like-named read-outs stand apart in the source and are kept apart here.

Key:
[1] = 3 g 30 min before bedtime, next daytime, mean ± standard error
Protocol: A single-blind crossover study aimed at confirmation of the effect of glycine on sleep was performed with 7 male adults (30s-40s, body weight 62-79 kg). The test participants took glycine (granule containing citric acid and the like) in an amount equivalent to 3 g of glycine 30 min before bedtime, and reduced maltose containing components other than glycine (citric acid and the like) and adjusted to an almost indistinguishable taste was used as a placebo. The sleep hours on the day of administration was limited to about 75% (5-6.5 hr) of comfortable sleep hours each test participant voluntarily notified, and a nap was prohibited until the end of the administration. For the test, glycine and placebo were each taken for 3 days with an interval of a 14-21 day non-intake period, totaling 4-5 weeks. Of the 3 days, the following investigation and measurement were performed at 10 o'clock, 14 o'clock and 18 o'clock of the next day of the first day of the intake.
(2) To evaluate the cognitive and psychomotor function as a reflection of the quality of sleep, an operation efficiency test using a computer was performed. As a three kind discrimination response task, a task of responding to only one predetermined kind from randomly designed three kinds of graphics on the screen was given.

[2] = test participant A, in water before bed
Excerpt: The test participant A (body weight 45 kg) took glycine (substantially pure powder) in an amount shown in Table 6 before going to bed by dissolving same in water, and recorded the level of realization of deep sleep. When the realization of deep sleep increased than usual, “+” was marked, when the realization of deep sleep was almost the same as usual, “±” was marked and when it became worse, “−” was marked.

[3] = Voluntary comments on quality of sleep, 77 participants (Experimental Example 5); details: 3 g glycine
[4] = rats, 2 g/kg, mean±standard error
Protocol: Glycine (substantially pure glycine powder) was administered to rats at 0 g/kg and 2 g/kg (0 g/kg for control) and using the rat, spontaneous electroencephalogram and cervix electromyogram were recorded through an electrode placed in the cortex hippocampus, and further, the amount of spontaneous motor activity was measured by an infrared ray monitor. The sleep-wake cycle was analyzed from the electroencephalogram, electromyogram and behavior record (kymogram), and percent occupation of light period and dark period and latency time were calculated.

[5] = 3 g 1 hr before bedtime
Protocol: (§1) A double-blind crossover test aiming at confirmation of the effect of glycine on sleep was performed with 14 male adults (body weight 64-112.5 kg, average 81.2 kg) concerned about snoring and apnea condition during sleep. The test participants took glycine (granules containing citric acid and the like) in an amount equivalent to 3 g of glycine 1 hr before bedtime, and reduced maltose containing components other than glycine (citric acid and the like) and adjusted to an almost indistinguishable taste was used as a placebo.
(1) For the evaluation of sleep condition, overnight polysomnography was used for the measurement.
(§2) In addition, the sleep condition of the night before was examined on waking using the sleep questionnaire.

[6] = Protocol: as §1, §2
[7] = intake at 0.1 g per day; cited from earlier work
[8] = voluntary comments of 77 participants
[9] = 0-3 hr after administration, dark period
[10] = 0-3 hr after administration, light period
[11] = 4-6 hr after administration, dark period
[12] = 4-6 hr after administration, light period

NCC(=O)O [glycine, Glycine]
Response time ([1]; placebo 0.393 ± 0.025, p value 0.028): 0.366 ± 0.021 s | Lapse (number of response where reaction time was 500 msec or longer) ([1]; placebo 2.67 ± 3.06, p value 0.017): 1.19 ± 1.69 times | percentage of correct answer ([1]; placebo 95.6 ± 5.20, p value 0.043): 98.4 ± 1.16% | Realization of deep sleep ([2]; 1/1 teaspoon, general amount 2.5 g): + | Realization of deep sleep ([2]; ¼ teaspoon, general amount 0.6 g): + | Realization of deep sleep ([2]; ½ teaspoon, general amount 1.2 g): + | participants commenting that no effect was found ([3]; out of 77 participants): 17 participants | participants commenting that the quality of sleep was improved ([3]; out of 77 participants): 58 participants | participants commenting that the quality was degraded ([3]; out of 77 participants): 2 participants | Awakening was fresh: Degrading effect [3, 8]: 1 person | Awakening was fresh: Enhancing effect on quality of sleep [3, 8]: 24 person | Deep sleep was realized: Degrading effect [3, 8]: 0 person | Deep sleep was realized: Enhancing effect on quality of sleep [3, 8]: 8 person | Did not wake up at midnight: Degrading effect [3, 8]: 1 person | Did not wake up at midnight: Enhancing effect on quality of sleep [3, 8]: 6 person | Fell asleep easily: Degrading effect [3, 8]: 0 person | Fell asleep easily: Enhancing effect on quality of sleep [3, 8]: 6 person | Had no dream: Degrading effect [3, 8]: 0 person | Had no dream: Enhancing effect on quality of sleep [3, 8]: 4 person | Sleep was deeper: Degrading effect [3, 8]: 0 person | Sleep was deeper: Enhancing effect on quality of sleep [3, 8]: 10 person | Slept well: Degrading effect [3, 8]: 0 person | Slept well: Enhancing effect on quality of sleep [3, 8]: 2 person | Snoring decreased: Degrading effect [3, 8]: 0 person | Snoring decreased: Enhancing effect on quality of sleep [3, 8]: 19 person | sleepiness during daytime reduced: Degrading effect [3, 8]: 0 person | sleepiness during daytime reduced: Enhancing effect on quality of sleep [3, 8]: 4 person | Percent occupation, fast wave sleep stage [4, 9]: 3.2 ± 1.7% | Percent occupation, slow wave sleep stage [4, 9]: 29.2 ± 6.5% | Percent occupation, waking stage [4, 9]: 67.6 ± 7.9% | Percent occupation, fast wave sleep stage [4, 10]: 5.5 ± 1.6% | Percent occupation, slow wave sleep stage [4, 10]: 54.9 ± 4.9% | Percent occupation, waking stage [4, 10]: 39.6 ± 6.0% | Percent occupation, fast wave sleep stage [4, 11]: 3.0 ± 0.7% | Percent occupation, slow wave sleep stage [4, 11]: 31.5 ± 2.8% | Percent occupation, waking stage [4, 11]: 65.6 ± 3.4% | Percent occupation, fast wave sleep stage [4, 12]: 13.4 ± 2.1% | Percent occupation, slow wave sleep stage [4, 12]: 65.9 ± 2.0% | Percent occupation, waking stage [4, 12]: 20.7 ± 0.8% | Amount of spontaneous motor activity at 6 hr after administration ([4]; dark period): 19464 ± 2765 count | Latency time, fast wave sleep stage ([4]; dark period): 118.2 ± 28.3 min | Latency time, slow wave sleep stage ([4]; dark period): 78.6 ± 22.8 min | Amount of spontaneous motor activity at 6 hr after administration ([4]; light period): 2316 ± 295 count | Latency time, fast wave sleep stage ([4]; light period): 20.9 ± 3.4 min | Latency time, slow wave sleep stage ([4]; light period): 8.5 ± 1.2 min | slow wave sleep (%) in sleep onset initial stage ([5]; early stage (1 hr) of sleep onset, placebo 6.4, p value 0.020): 12.0% | lights-out - sleep onset ([5]; placebo 16.3, p value 0.322): 13.3 min | lights-out - slow wave sleep ([5]; placebo 103.4, p value 0.042): 52.2 min | OSA sleep questionnaire point value, time of dozing off ([6]; participant average of 4 levels (0, 11, 19, 30 points), higher = shorter dozing, placebo 19.6): 24.9 | OSA sleep questionnaire point value, depth of sleep ([6]; participant average of 4 levels (0, 11, 21, 32 points), higher = deeper, placebo 12.3): 16.7 | memory and attention [7]: increases memory and attention
